Molecular target: T1, oxytocin receptor (CHO-OTR/NFAT-β-Lactamase cells) (Homo sapiens, UniProt P30559)
T1 construct: expressed in transfected cells; host or cells: CHO (CHO-OTR line carrying an NFAT-β-lactamase reporter)
T1 sequence (P30559 1-389): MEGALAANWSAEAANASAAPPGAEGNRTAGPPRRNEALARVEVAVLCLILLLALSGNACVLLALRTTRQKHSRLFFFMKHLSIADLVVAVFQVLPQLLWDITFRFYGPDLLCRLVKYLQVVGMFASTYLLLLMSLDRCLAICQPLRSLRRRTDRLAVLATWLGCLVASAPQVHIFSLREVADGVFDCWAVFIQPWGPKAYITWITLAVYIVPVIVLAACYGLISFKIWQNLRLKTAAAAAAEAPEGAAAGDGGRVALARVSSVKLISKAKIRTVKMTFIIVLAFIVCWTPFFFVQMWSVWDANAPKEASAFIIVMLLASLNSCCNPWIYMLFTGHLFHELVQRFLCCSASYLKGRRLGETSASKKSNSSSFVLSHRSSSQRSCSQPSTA
Experiment: Oxytocin Receptor Beta-Lactamase Assay
Type: cell-based
Details: oxytocin stimulation 4 hours, read-out: oxytocin antagonist activity, expressed as a Ki value
Experimental: A suitable assay for determining the oxytocin antagonist activity of a compound is detailed herein below.
Oxytocin Receptor Beta-Lactamase Assay
Cells used are CHO-OTR/NFAT-β-Lactamase. The NFAT-β-lactamase expression construct was transfected into the CHO-OTR cell line and clonal populations were isolated via fluorescence activated cell sorting (FACS). An appropriate clone was selected to develop the assay.
Recovery of cells—A vial of frozen cells is thawed rapidly in 37° C. water bath and the cell suspension transferred into a T225 flask with 50 ml of fresh growth medium and then incubated at 37° C., 5% CO2 in an incubator until the cells adhered to the flask Replace media with 50 ml of fresh growth media the following day.
Culturing cells—CHO—OTR—NFAT-βLactamase cells were grown in growth medium. Cells were harvested when they reached 80-90% confluence removing the medium and washing with pre-warmed PBS. PBS was then removed and Trypsin/EDTA added (3 mls for T225 cm^2 flask) before incubating for 5 min in 37° C./5% CO2 incubator. When cells were detached, pre-warmed growth media was added (7 mls for T225 cm^2 flask) and the cells re-suspended and mixed gently by pipetting to achieve single cell suspension. […]
Cells grown at 80-90% confluence were harvested and counted. […]
Preparation of 1 ml of 6× Loading Buffer with Enhanced Loading Protocol (this requires scale-up according to number of plates to be screened) • 12 μl of solution A (1 mM CCF4-AM in Dry DMSO) was added to 60 μl of solution B (100 mg/ml Pluronic-F127 in DMSO+0.1% Acetic Acid) and vortexed. • The resulting solution was added to 925 μl of solution C (24% w/w PEG400, 18% TR40 v/v in water). • 75 μl of solution D was added (200 mM probenecid in 200 mM NaOH). • 10 μl of 6× Loading Buffer was added to all wells and incubated for 1.5 hrs-2 hrs at room temperature in the dark. • The plates were read using an LJL Analyst, Excitation 405 nm, Emission 450 nm and 530 nm, gain optimal, lagtime 0.40 μs integration, 4 flashes, bottom reading.

SMILES | Ki [nM]
COCc1nnc(N2CCC3(CC2)OCc2ccccc23)n1-c1ccc(OC)nc1 [Example 17, 1′-[5-(methoxymethyl)-4-(6-methoxypyridin-3-yl)-4H-1,2,4-triazol-3-yl]-3H-spiro[2-benzofuran-1,4′-piperidine]] | 10.2
COc1ccc(-n2c(C)nnc2N2CCC3(CC2)COc2ccccc23)cn1 [Example 1, 1′-[4-(6-methoxypyridin-3-yl)-5-methyl-4H-1,2,4-triazol-3-yl]spiro[1-benzofuran-3,4′-piperidine]] | 12.9
COCc1nnc(N2CCC3(CC2)OCc2cc(F)ccc23)n1-c1ccc(OC)nc1 [Example 6, 5-fluoro-1′-[5-(methoxymethyl)-4-(6-methoxypyridin-3-yl)-4H-1,2,4-triazol-3-yl]-3H-spiro[2-benzofuran-1,4′-piperidine]] | 11.5
